Experimental findings from patent US20020061888A1, “Combination therapy for the prophylaxis and treatment of hyperlipidemic conditions and disorders” (priority 2000, published 2002) are described below.

The nature of this data set: Water uptake experiments (Dynamic Vapor Sorption, water sorption/desorption isotherms at 25° C.). The format is physicochemical. The procedure: A dry sample of the crystalline form having a melting point or a decomposition point of about 278° C. to about 285° C. (i.e., Form II) typically gains less than about 1% of its own weight when equilibrated under 80% relative humidity (RH) air at 25° C. […] For the present purposes, the term “essentially 0% RH” means less than about 1% RH. The term “equilibrated” means that the change in weight of a sample over time at a given relative humidity is less than 0.0003% ((dm/dt)/m0 ×100, where m is mass in mg, m0 is initial mass, and t is time in minutes).
Water sorption experiments are performed on a Dynamic Vapor Sorption (DVS) apparatus (DVS-1000 manufactured by Surface Measurements Systems, Inc.). Experiments are performed at 25° C. by initially drying the material of interest (about 10 mg sample) from 30% relative humidity (RH) ([…] RH step) by purging with dry nitrogen until no further weight change was observed. The samples are then exposed to a stepwise (10% RH steps) increase in RH from about 0 to about 90% RH. Each successive step is initiated when the change in weight over time at the relative humidity was less than 0.0003% ((dm/dt)/m0×100, where m is mass in mg, m0 is initial mass, and t is time in minutes). The sample is then taken through the reverse of the stepwise % RH increase. The data are collected on a computer and analyzed using SMS' proprietary MS-Excel macro interface software.

Take `CCCCC1(CCCC)CS(=O)(=O)c2ccc(N(C)C)cc2[C@@H](c2ccc(OCc3ccc(C[N+]45CCN(CC4)CC5)cc3)cc2)[C@H]1O` [Form I, (4R,5R)-1-((4-(4-(3,3-dibutyl-7-(dimethylamino)-2,3,4,5-tetrahydro-4-hydroxy-1,1-dioxido-1-benzithiepin-5-yl)phenoxy)methyl)phenyl)methyl-4-aza-1-azoniabicyclo[2.2.2]octane chloride]: the “Desorption % Weight Change” value was 0.057% (0.45% RH at 25° C.); 0.997% (9.2% RH at 25° C.); 2.1025% (20.05% RH at 25° C.); 3.599% (29.75% RH at 25° C.); 4.743% (39.4% RH at 25° C.); 5.321% (49.55% RH at 25° C.). The “Desorption % Weight Change” value runs as follows: (59.4% RH at 25° C.) 5.726%; (69.05% RH at 25° C.) 6.054%; (78.8% RH at 25° C.) 6.357%; (88.5% RH at 25° C.) 6.734%. The “Sorption % Weight Change” value is given as 0.057% (0.45% RH at 25° C.); 0.9575% (9.2% RH at 25° C.); 2.016% (20.05% RH at 25° C.); 3.4105% (29.75% RH at 25° C.); 4.282% (39.4% RH at 25° C.); 4.928% (49.55% RH at 25° C.). The “Sorption % Weight Change” value by setting is: (59.4% RH at 25° C.) 5.356%; (69.05% RH at 25° C.) 5.706%; (78.8% RH at 25° C.) 6.109%; (88.5% RH at 25° C.) 6.734%.
Take `CCCCC1(CCCC)CS(=O)(=O)c2ccc(N(C)C)cc2[C@@H](c2ccc(OCc3ccc(C[N+]45CCN(CC4)CC5)cc3)cc2)[C@H]1O` [Form II, (4R,5R)-1-((4-(4-(3,3-dibutyl-7-(dimethylamino)-2,3,4,5-tetrahydro-4-hydroxy-1,1-dioxido-1-benzithiepin-5-yl)phenoxy)methyl)phenyl)methyl-4-aza-1-azoniabicyclo[2.2.2]octane chloride]: the “Desorption % Weight Change” value runs as follows: (1.3% RH at 25° C.) −0.02695%; (9.35% RH at 25° C.) 0.04235%; (20.25% RH at 25° C.) 0.09715%; (29.75% RH at 25° C.) 0.1444%; (39.55% RH at 25° C.) 0.1866%; (49.7% RH at 25° C.) 0.2636%. Moreover, the “Desorption % Weight Change” value by setting is: (59.5% RH at 25° C.) 0.331%; (69.1% RH at 25° C.) 0.3983%; (78.65% RH at 25° C.) 0.4849%; (88.5% RH at 25° C.) 0.6446%. Besides, the “Sorption % Weight Change” value by setting is: (1.3% RH at 25° C.) −0.02695%; (9.35% RH at 25° C.) 0.04715%; (20.25% RH at 25° C.) 0.1058%; (29.75% RH at 25° C.) 0.1376%; (39.55% RH at 25° C.) 0.1809%; (49.7% RH at 25° C.) 0.2386%. The “Sorption % Weight Change” value runs as follows: (59.5% RH at 25° C.) 0.304%; (69.1% RH at 25° C.) 0.3945%; (78.65% RH at 25° C.) 0.4695%; (88.5% RH at 25° C.) 0.6446%. The hygroscopicity entry (crystalline form, 80% RH air at 25° C.) is “essentially non-hygroscopic”. Besides, for the setting “dry sample (dried at essentially 0% RH, about 25° C., dry nitrogen purge)”, the “weight gain when equilibrated under 80% relative humidity (RH) air at 25° C.” value is “less than 1 % of its own weight”.
